# Experimental data as given in ChEMBL document CHEMBL1201862, “PubChem BioAssay data set” (2004).
# Activity calls are given as the source filed them.
# Legend:
# [1] = molecular target: T1, Eukaryotic translation initiation factor 4H (Homo sapiens, UniProt Q15056); assay: eIF4H inhibition in translation initiation, SAR follow-up (AID 435011); format: functional
# [2] = molecular target: T2, Polyadenylate-binding protein 1 (Homo sapiens, UniProt P11940); assay: PABP inhibition in translation initiation, SAR follow-up (AID 435018); format: functional
# T2 sequence (P11940 whole entry): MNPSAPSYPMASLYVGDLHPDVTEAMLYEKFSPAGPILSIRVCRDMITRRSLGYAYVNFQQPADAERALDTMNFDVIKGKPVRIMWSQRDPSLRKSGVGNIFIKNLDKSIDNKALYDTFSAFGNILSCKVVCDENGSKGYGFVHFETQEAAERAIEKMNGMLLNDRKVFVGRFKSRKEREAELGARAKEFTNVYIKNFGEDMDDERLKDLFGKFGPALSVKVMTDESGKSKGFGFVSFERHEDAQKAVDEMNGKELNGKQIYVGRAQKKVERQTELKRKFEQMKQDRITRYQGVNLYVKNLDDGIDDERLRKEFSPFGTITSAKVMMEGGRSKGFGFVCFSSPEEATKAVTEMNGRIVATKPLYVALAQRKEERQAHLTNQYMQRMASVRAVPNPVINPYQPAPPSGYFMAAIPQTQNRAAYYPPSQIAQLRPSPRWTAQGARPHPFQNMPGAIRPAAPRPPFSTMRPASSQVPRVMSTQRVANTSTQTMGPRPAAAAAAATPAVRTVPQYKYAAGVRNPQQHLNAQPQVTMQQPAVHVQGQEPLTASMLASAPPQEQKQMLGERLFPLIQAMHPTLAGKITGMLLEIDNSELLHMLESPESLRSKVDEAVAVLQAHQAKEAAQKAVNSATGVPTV
# [3] = molecular target: T3, Melanin-concentrating hormone receptor 1 (Homo sapiens, UniProt Q99705); assay: Fluorescence-based counterscreen for antagonists of the G-protein coupled receptor 7 (GPR7): cell-based high throughput dose response assay to identify antagonists of the melanin-concentrating hormone receptor 1 (MCHR1).; format: functional
# T3 sequence (Q99705 whole entry): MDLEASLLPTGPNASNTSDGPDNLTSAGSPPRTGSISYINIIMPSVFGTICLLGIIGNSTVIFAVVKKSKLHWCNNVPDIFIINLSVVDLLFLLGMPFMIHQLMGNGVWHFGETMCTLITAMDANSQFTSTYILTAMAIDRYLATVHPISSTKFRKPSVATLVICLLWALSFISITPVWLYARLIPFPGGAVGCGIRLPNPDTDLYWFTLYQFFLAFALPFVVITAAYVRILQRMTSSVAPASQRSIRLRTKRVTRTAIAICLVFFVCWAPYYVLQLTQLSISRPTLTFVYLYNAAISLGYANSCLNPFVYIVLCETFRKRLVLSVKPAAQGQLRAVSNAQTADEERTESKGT
# [4] = molecular target: T4, Neuropeptides B/W receptor type 1 (Homo sapiens, UniProt P48145); assay: Fluorescence-based dose response cell-based high throughput screening assay to identify antagonists of the G-protein coupled receptor 7 (GPR7). [Related pubchem assays: 1952 (Screening assay (GPR7 antagonists).), 1880 (Summary AID.)]; format: functional
# T4 sequence (P48145 whole entry): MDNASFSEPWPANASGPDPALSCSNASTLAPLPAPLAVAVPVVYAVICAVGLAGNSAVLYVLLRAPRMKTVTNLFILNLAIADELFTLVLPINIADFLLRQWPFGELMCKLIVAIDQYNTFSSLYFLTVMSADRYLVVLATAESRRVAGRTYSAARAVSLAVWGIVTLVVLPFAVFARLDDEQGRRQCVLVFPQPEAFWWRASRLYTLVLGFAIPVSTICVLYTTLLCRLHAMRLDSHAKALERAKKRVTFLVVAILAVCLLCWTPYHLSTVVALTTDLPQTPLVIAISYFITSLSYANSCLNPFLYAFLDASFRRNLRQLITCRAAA
# [5] = cells; format: functional, cell-based
# [6] = luciferase reporter signal reduction – luminescence, H4-C neuroglioblastoma cells, dose response (AID 2458); format: functional, cell-based;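 also: H4 neuroglioblastoma cells stably carrying a luciferase reporter gene fusion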
# [7] = Luminescence Cell-Based Dose Response HTS to Identify Inhibitors of 5'UTR Stem-Loop Driven Prion Protein mRNA Translation in H4 Neuroglioblastoma Cells. [Related pubchem assays: 1827 (Project Summary), 1813 (Primary HTS)]; format: functional
# [8] = molecular target: T5, Microphthalmia-associated transcription factor (Homo sapiens, UniProt O75030); assay: TRPM1 promoter luciferase signal decrease, dose response, MITF inhibitor project, cell-based, SK-MEL-5, cherry-picked, set 3 (AID 493073); format: functional
# T5 sequence (O75030 whole entry): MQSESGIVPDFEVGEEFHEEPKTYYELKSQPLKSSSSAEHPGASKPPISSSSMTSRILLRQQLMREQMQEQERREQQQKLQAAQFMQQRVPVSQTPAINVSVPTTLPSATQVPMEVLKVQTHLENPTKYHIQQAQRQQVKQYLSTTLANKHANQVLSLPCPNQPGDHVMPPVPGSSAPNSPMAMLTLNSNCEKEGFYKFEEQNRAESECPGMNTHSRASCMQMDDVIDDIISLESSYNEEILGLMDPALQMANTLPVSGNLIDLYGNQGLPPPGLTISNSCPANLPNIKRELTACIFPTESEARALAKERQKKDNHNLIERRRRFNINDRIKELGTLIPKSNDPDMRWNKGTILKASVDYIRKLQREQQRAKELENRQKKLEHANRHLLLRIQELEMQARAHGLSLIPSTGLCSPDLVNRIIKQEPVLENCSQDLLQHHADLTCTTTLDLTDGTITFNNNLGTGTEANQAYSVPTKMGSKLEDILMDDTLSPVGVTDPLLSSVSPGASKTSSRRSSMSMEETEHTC
# [9] = inhibitors of firefly luciferase expression or activity, dose response, H4 neuroglioma cells, luminescence (AID 1990); format: functional, cell-based
# [10] = inhibitors of SNCA 5'UTR-driven translation, confirmation, luminescence, H4 neuroglioblastoma cells, dose confirmation (AID 2454); format: functional, cell-based;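 also: H4 neuroglioblastoma cells carrying an alpha-synuclein 5'UTR luciferase reporter; potency for inhibition of the luciferase signal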
# [11] = molecular target: DNA dC->dU-editing enzyme APOBEC-3G (Homo sapiens, UniProt Q9HC16); format: functional;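 also: Dose-response counterscreen measuring inhibition of APOBEC3G DNA deaminase activity, run while confirming APOBEC3A inhibitors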
# Sequence of DNA dC->dU-editing enzyme APOBEC-3G (Q9HC16 whole entry): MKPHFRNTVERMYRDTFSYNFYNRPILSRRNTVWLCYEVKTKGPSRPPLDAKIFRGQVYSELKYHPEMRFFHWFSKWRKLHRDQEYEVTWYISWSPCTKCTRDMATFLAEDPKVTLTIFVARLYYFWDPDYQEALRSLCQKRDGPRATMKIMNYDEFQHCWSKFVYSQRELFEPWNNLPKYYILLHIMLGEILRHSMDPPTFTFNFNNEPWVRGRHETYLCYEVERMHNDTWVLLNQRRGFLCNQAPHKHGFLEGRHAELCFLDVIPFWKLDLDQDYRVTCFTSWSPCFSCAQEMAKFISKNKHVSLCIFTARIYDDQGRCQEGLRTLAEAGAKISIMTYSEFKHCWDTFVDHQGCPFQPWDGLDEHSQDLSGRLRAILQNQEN
# [12] = molecular target: T2, Polyadenylate-binding protein 1; assay: PABP poly(A) RNA binding inhibitors, primary screen, biochemical, fluorescence polarization, uHTS (AID 2014)
# [13] = molecular target: T1, Eukaryotic translation initiation factor 4H; assay: human eIF4H binding inhibitors, primary screen, translation initiation inhibitor project, biochemical, uHTS, fluorescence polarization (AID 2012)
# [14] = molecular target: DNA dC->dU-editing enzyme APOBEC-3A (Homo sapiens, UniProt P31941); assay: Dose Response confirmation of small molecule APOBEC3A DNA Deaminase Inhibitors via a fluorescence-based single-stranded DNA deaminase assay. [Related pubchem assays (depositor defined):AID493011, AID493024]; format: functional
# Sequence of DNA dC->dU-editing enzyme APOBEC-3A (P31941 whole entry): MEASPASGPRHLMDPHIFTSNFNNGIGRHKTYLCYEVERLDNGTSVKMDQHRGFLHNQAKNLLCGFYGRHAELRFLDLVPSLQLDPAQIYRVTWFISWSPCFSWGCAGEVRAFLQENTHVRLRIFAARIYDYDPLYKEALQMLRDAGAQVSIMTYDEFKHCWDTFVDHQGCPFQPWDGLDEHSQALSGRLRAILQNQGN
# [15] = tested on: HeLa; assay: HeLa cell cytotoxicity, dose response, cytotoxicity control, 24 h, cherry-picked samples (AID 504726); format: functional, cell-based; conditions: Homo sapiens;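 also: potency for cytotoxicity as loss of luminescence signal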
# [16] = molecular target: T3, Melanin-concentrating hormone receptor 1; assay: Late-stage fluorescence-based counterscreen for antagonists of the G-protein coupled receptor 7 (GPR7): cell-based dose response assay to identify antagonists of the melanin-concentrating hormone receptor 1 (MCHR1). [Related pubchem assays (depositor defined):AID1861, AID1880, AID1952, AID2148, AID2251, AID2257, AID485339]; format: functional
# [17] = molecular target: T4, Neuropeptides B/W receptor type 1; assay: GPR7 antagonist potency, late-stage follow-up, cell-based, fluorescence, dose response (AID 463251); format: functional
# [18] = molecular target: G-protein coupled receptor 55 (Homo sapiens, UniProt Q9Y2T6); assay: GPR55 antagonists blocking LPI-driven arrestin recruitment, primary screen, imaging, U2OS, beta-arrestin-GFP, LPI agonist (AID 2013); format: functional;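 also: antagonist potency measured as reduced agonist-driven arrestin aggregation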
# Sequence of G-protein coupled receptor 55 (Q9Y2T6 whole entry): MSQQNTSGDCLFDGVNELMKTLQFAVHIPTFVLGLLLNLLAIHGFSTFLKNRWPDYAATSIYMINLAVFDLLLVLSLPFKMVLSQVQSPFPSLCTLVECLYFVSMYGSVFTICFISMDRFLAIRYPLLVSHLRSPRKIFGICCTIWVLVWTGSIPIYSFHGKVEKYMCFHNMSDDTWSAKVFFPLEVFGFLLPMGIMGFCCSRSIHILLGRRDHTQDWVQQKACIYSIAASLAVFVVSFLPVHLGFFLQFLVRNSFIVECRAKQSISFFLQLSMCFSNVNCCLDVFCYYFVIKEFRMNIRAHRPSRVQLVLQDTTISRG
# [19] = molecular target: Intestinal-type alkaline phosphatase (Homo sapiens, UniProt P09923); assay: Dose Response confirmation of uHTS hits from a small molecule inhibitors of human intestinal alkaline phosphatase via a luminescent assay. [Related pubchem assays (depositor defined):AID2544, AID2574]; format: functional
# Sequence of Intestinal-type alkaline phosphatase (P09923 whole entry): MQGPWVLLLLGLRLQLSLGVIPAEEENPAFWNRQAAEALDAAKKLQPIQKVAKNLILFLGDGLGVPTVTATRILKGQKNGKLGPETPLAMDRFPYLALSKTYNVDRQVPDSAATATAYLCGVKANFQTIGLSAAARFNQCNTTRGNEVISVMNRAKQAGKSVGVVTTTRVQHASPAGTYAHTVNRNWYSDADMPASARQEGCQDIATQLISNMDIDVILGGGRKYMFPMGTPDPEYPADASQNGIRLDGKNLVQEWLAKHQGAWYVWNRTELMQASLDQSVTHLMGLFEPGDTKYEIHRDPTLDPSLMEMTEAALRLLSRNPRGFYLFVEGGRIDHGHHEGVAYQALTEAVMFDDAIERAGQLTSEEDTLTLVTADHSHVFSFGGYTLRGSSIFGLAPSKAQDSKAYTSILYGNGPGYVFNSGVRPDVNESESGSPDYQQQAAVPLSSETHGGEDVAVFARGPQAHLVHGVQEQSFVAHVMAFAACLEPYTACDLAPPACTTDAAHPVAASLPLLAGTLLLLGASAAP
structure (smiles),measurement,setting,value
CCOC(=O)Cc1c(Sc2ccccc2)c2cc(C)ccc2n1C,IC50,[1],> 100 µM (inactive)
same,IC50,[2],> 100 µM (inactive)
Cc1ccccc1N(CC(=O)NC1CCCCC1)C(=O)CCCC(=O)Nc1ccccn1,IC50,[3],> 43.8 µM (not active)
same,IC50,[4],> 43.8 µM (not active)
Cc1ccc(C(=O)c2cccc(N)c2)cc1C,EC50,[5],2.86 µM (active)
same,EC50,[6],1.11 µM (active)
same,EC50,[7],< 0.1 µM (active)
same,AC50,[8],3.62 µM (active)
same,EC50,[9],< 0.1 µM (active)
same,EC50,[10],1.46 µM (active)
CC(C)NC(=O)C(C)N1CCN(S(=O)(=O)c2ccc3ccccc3c2)CC1 (stereo not given),IC50,[11],3.72 µM (active)
same,IC50,[12],5.92 µM (active)
same,IC50,[1],27.6 µM (active)
same,IC50,[13],88.9 µM (active)
same,IC50,[14],3.38 µM (active)
same,IC50,[2],20.5 µM (active)
Cc1ccc(OCC(=O)N/N=C/C=C/c2ccco2)cc1,IC50,[12],45.5 µM (active)
same,IC50,[13],15.6 µM (active)
CNC(S)=Nc1cccc(C(=O)OC)c1,AC50,[15],213 µM (active)
COc1cc(OC)c(S(=O)(=O)N2CCCCC2)cc1S(=O)(=O)N1CCCCC1,IC50,[16],> 20 µM (inactive)
same,IC50,[17],> 20 µM (inactive)
same,IC50,[3],> 43.8 µM (not active)
same,IC50,[4],7.02 µM (active)
Cc1cc(Cl)ccc1NC(=S)N(CCCN1CCOCC1)Cc1cccs1,IC50,[18],6.24 µM (active)
CC(C)(C)NN/C=C1\C(=O)N(c2ccc(Cl)cn2)C(=O)c2ccccc21,IC50,[19],> 100 µM (inactive)
